Source: patent publication US5677328A, “Ethylamino carbazole melatonergic agents” (Bristol-Myers Squibb Company, priority 1996, dated 1997)

Key:
human ML1a = biological target: T1, human ML1a (Homo sapiens, UniProt P48039); assay: Measurement of Melatonergic Binding (human ML1a binding assay, 2-[125I]-iodomelatonin, COS-1 cell membranes); details: 2-[125I]-iodomelatonin 100 pM, 37° C. for 1 hour
T1 construct: expressed in transfected cells; host or cells: COS-1 cells (transient, DEAE-dextran), membrane homogenate
Method: Example 35 sets out the human ML1a binding assay used to test activity.
Measurement of Melatonergic Binding
(a) 50 mM Tris buffer containing 12.5mM MgCl2 and 2mM EDTA (pH 7.4 at 37° C.).
(b) Wash buffer: 20mM Tris base containing 2mM MgCl2 (pH 7.4 at room temperature).
(c) 6-Chloromelatonin (10^-5 M final concn.).
(d) 2-[^125 I]-iodomelatonin (100 pM final concn.). Source: NEN
2. Membrane preparation. The cDNA (human ML1A) was introduced into COS-1 cells by the DEAE-dextran method. Three days later, the media was removed, the plates washed with phosphate buffered saline, the cells removed using Hank's balanced salt solution and pelleted. The supernatant was discarded and the pellets frozen. For preparing membrane homogenates, pellets are thawed on ice, and resuspended in TME buffer, Tris base, MgCl2, EDTA (pH 7.4 at 37° C.), supplemented with aprotinin, leupeptin, and phenylmethlysulfonylfluoride. The cells were then homogenized using a dounce homogenizer, and centrifuged. The resulting pellet was resuspended with a dounce homogenizer in TME and frozen. On the day of assay, the small aliquot was thawed on ice and resuspended in TME buffer.
3. Incubation: 37° C. for 1 hour. Reaction is terminated by filtration.
The procedure was based on that disclosed in: Reppert, S. M., Weaver, D. R., and Ebisawa, R. (1994), Neuron, 13, 1177-1185 (1994).

[1] = tested on: circadian rhythms in rats; details: exogenous melatonin administration, Cassone et al. 1986; cited from earlier work
[2] = cited from earlier work

T1 sequence (P48039 whole entry): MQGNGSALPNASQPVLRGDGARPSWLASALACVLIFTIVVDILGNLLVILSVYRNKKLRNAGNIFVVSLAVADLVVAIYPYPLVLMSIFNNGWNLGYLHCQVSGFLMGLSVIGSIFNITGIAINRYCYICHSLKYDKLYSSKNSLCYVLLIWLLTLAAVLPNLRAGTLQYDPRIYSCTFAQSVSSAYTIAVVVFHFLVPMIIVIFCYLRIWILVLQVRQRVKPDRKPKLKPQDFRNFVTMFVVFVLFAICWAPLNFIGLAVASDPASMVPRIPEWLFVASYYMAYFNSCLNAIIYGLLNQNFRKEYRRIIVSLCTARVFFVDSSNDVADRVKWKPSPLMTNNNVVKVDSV

Compound | IC50 (human ML1a) [nM] | synchronization of circadian rhythms [1] | oral bioavailability [2]
CNC(=O)NCCn1c2cc(OC)ccc2c2ccc(OC)cc21 [Example 26, N-[2-(2,7-Dimethoxy-9H -carbazol-9-yl)ethyl]-N'-methylurea] | < 100 |  | 
CCCC(=O)NCCn1c2ccccc2c2ccc(OC)cc21 [Example 15, N-[2-(2-Methoxy-9H-carbazol-9-yl)ethyl]butanamide] | < 100 |  | 
COc1ccc2[nH]cc(CCNC(C)=O)c2c1 [melatonin, N-acetyl-5-methoxytryptamine] |  | found to synchronize circadian rhythms in rats | often low and variable
COc1ccc2c3ccc(OC)cc3n(CCCNC(C)=O)c2c1 [Example 8, N-[3-(2,7-Dimethoxy-9H-carbazol-9-yl)propyl]acetamide] | < 100 |  | 
COc1ccc2c3ccc(OC)cc3n(CCNC(=O)CS(C)(=O)=O)c2c1 [Example 22, N-[2-(2,7-Dimethoxy-9H-carbazol-9-yl)ethyl]-2-(methanesulfonyl)acetamide] | ≥ 250 |  | 
CCCC(=O)NCCn1c2cc(OC)ccc2c2ccc(OC)cc21 [Example 18, N-[2-(2,7-Dimethoxy-9H-carbazol-9-yl)ethyl]butanamide] | 100 to 250 |  | 
COc1ccc2c3ccc(OC)cc3n(CCCNC(=O)C(C)C)c2c1 [Example 11, N-[3-(2,7-Dimethoxy-9H-carbazol-9-yl)propyl]-2-methylpropanamide] | 100 to 250 |  | 
COc1ccc2c3ccc(OC)cc3n(CCNC(=O)C3CC3)c2c1 [Example 20, N-[2-(2,7-Dimethoxy-9H-carbazol-9-yl)ethyl]cyclopropanecarboxamide] | < 100 |  | 
COc1ccc2c3ccc(OC)cc3n(CCNC(=O)C(C)C)c2c1 [Example 19, N-[2-(2,7-Dimethoxy-9H-carbazol-9-yl)ethyl]-2-methylpropanamide] | 100 to 250 |  | 
COc1ccc2c3ccccc3n(CCNC(=O)C3CC3)c2c1 [Example 17, N-[2-(2-Methoxy-9H-carbazol-9-yl)ethyl]cyclopropanecarboxamide] | 100 to 250 |  | 
COc1ccc2c3ccc(OC)cc3n(CCNC(=O)CSC)c2c1 [Example 21, N-[2-(2,7-Dimethoxy-9H-carbazol-9-yl)ethyl]methylthioacetamide] | < 100 |  | 
CCCC(=O)NCCCn1c2cc(OC)ccc2c2ccc(OC)cc21 [Example 10, N-[3-(2,7-Dimethoxy-9H-carbazol-9-yl)propyl]butanamide] | < 100 |  | 
CCNC(=O)NCCn1c2cc(OC)ccc2c2ccc(OC)cc21 [Example 27, N-Ethyl-N'-[2-(2,7-dimethoxy-9H-carbazol-9-yl)ethyl]urea] | < 100 |  | 
CCC(=O)NCCCn1c2cc(OC)ccc2c2ccc(OC)cc21 [Example 9, N-[3-(2,7-Dimethoxy-9H-carbazol-9-yl)propyl]propanamide] | < 100 |  | 
